In PubChem BioAssay (NCI) one finds TGI data, which are given here for 13 compounds.

Test systems include MDA-N; HCT-15 colon; NCI-H522 lung; HCT-116 colon; HOP-92 NSCLC; ACHN renal; SF-268 CNS; MDA-MB-435; OVCAR-8 ovarian; SN12C renal; MALME-3M melanoma.
Holding throughout (experiment): NCI-60 cell line screen, 48 h

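Step 1: Grow cells in 96-well plates. Step 2: Expose to compound for 48 hours at 5 concentrations. Step 3: Interpolate endpoints linearly; if unreached, use highest concentration. TGI is the concentration that stops growth completely.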 Bounds are passed on as bounds.

For `CC(=O)O[C@H]1C[C@]2(C)C(CCC3O[C@@]32C)[C@@]2(CC(c3ccoc3)OC2O)[C@@H]1C` (stereo not given in full), the TGI in the assay on MDA-N, with HCT-15 colon, in the assay on NCI-H522 lung, in the assay with HCT-116 colon, in the assay with HOP-92 NSCLC and in the assay with ACHN renal was above 100 µM throughout. The TGI in the assay with SF-268 CNS, in the assay on MDA-MB-435, in the assay on OVCAR-8 ovarian and in the assay with SN12C renal was above 100 µM throughout.
With `CCCNC(=S)N/N=C/c1cccc(C)n1`, the TGI in the assay with MDA-N is above 100 µM; with HCT-15 colon, above 100 µM; with MALME-3M melanoma, above 100 µM; in the assay on NCI-H522 lung, 37 µM; in the assay with HCT-116 colon, 29 µM; with HOP-92 NSCLC, above 100 µM. Also, the TGI is 44.7 µM in the assay with ACHN renal, above 100 µM in the assay with MDA-MB-435, above 100 µM with OVCAR-8 ovarian and above 100 µM in the assay on SN12C renal.
As to `O=C1c2ccccc2CC12Cc1cc3c(cc1C2=O)CCC3` (stereo not given), the TGI with MDA-N, in the assay with HCT-15 colon, in the assay with MALME-3M melanoma, in the assay with NCI-H522 lung, in the assay with HCT-116 colon and with HOP-92 NSCLC was above 100 µM in each case. Besides, the TGI in the assay on ACHN renal, in the assay on SF-268 CNS, in the assay with MDA-MB-435 and in the assay with OVCAR-8 ovarian was above 100 µM each time.
Consider `CC[C@@]1(O)C(=O)OCc2c1cc1n(c2=O)Cc2c-1nc1ccccc1c2CC[Si](C)(C)C`, for which the TGI with MDA-N was above 100 µM; in the assay on HCT-15 colon it was above 100 µM; in the assay on MALME-3M melanoma, 0.155 µM; in the assay on NCI-H522 lung, 1.55 µM; in the assay on HCT-116 colon it was 0.116 µM; in the assay on HOP-92 NSCLC it was above 100 µM. The TGI in the assay with MDA-MB-435 and in the assay on OVCAR-8 ovarian was above 100 µM each time.
Take `OCCN(CCO)c1ccc2c(C(F)(F)F)cc(C(F)(F)F)nc2n1`: the TGI in the assay on MDA-N, with HCT-15 colon, in the assay with MALME-3M melanoma, with NCI-H522 lung, in the assay with HCT-116 colon and in the assay on HOP-92 NSCLC was above 100 µM throughout. Also, the TGI with ACHN renal, with SF-268 CNS, with MDA-MB-435, in the assay with OVCAR-8 ovarian and with SN12C renal was above 100 µM throughout.
In the case of `O=C(O)CSc1cc(-c2ccccc2)nc2ccccc12`, the TGI in the assay with MDA-N was above 100 µM; with HCT-15 colon, above 100 µM; with MALME-3M melanoma, above 100 µM; in the assay on NCI-H522 lung, 70.9 µM; in the assay on HCT-116 colon, 22 µM; with HOP-92 NSCLC it was above 100 µM. Further, the TGI with ACHN renal is above 100 µM; with SF-268 CNS it was above 100 µM; in the assay with MDA-MB-435, 38 µM; in the assay on OVCAR-8 ovarian, above 100 µM; in the assay with SN12C renal, above 100 µM.
As to `Cc1cc(N(CCC#N)CCC#N)ccc1/C(N=Nc1cccc([N+](=O)[O-])c1)=N/NC(=O)c1cc(Cl)ccc1O`, the TGI in the assay with MDA-N was above 100 µM; with HCT-15 colon, 80.5 µM; in the assay on MALME-3M melanoma, above 100 µM; with NCI-H522 lung it was 90.2 µM; in the assay with HCT-116 colon, above 100 µM; with HOP-92 NSCLC it was 76.3 µM. The TGI in the assay on ACHN renal, with SF-268 CNS, in the assay on MDA-MB-435, with OVCAR-8 ovarian and in the assay with SN12C renal was above 100 µM each time.
Turning to `COc1ccc(C2SCC(=O)N2c2ccc(-c3ccc(-n4c(-c5ccccc5)nc5ccccc5c4=O)cc3)cc2)cc1` (stereo not given), the TGI in the assay on MDA-N, in the assay with HCT-15 colon, with MALME-3M melanoma, in the assay on NCI-H522 lung, in the assay with HCT-116 colon and in the assay on HOP-92 NSCLC was above 100 µM each time. Moreover, the TGI in the assay with ACHN renal, in the assay with SF-268 CNS, in the assay on MDA-MB-435, with OVCAR-8 ovarian and in the assay with SN12C renal was above 100 µM in each case.
In the case of `c1ccc(N=C2SC(=NNc3ccccc3)SC2=Nc2ccccc2)cc1`, the TGI in the assay with MDA-N, in the assay on HCT-15 colon, with MALME-3M melanoma, in the assay with NCI-H522 lung, with HCT-116 colon and with HOP-92 NSCLC was above 100 µM in each case. In addition, the TGI in the assay on ACHN renal, with SF-268 CNS, in the assay with MDA-MB-435, in the assay with OVCAR-8 ovarian and in the assay with SN12C renal was above 100 µM each time.
For `O=C(Cn1nc(Br)c(Br)c1Br)c1ccccc1`, the TGI with MDA-N was above 100 µM; in the assay on HCT-15 colon, above 100 µM; with MALME-3M melanoma, 72.4 µM; with NCI-H522 lung it was 83.6 µM; with HCT-116 colon, 38.6 µM; with HOP-92 NSCLC, 66.8 µM. The TGI in the assay with ACHN renal is 76.2 µM; in the assay with SF-268 CNS it was above 100 µM; with MDA-MB-435, above 100 µM; with OVCAR-8 ovarian, above 100 µM; in the assay on SN12C renal, above 100 µM.
On to `CC(C)C(C/C=C1/CC(CO)(COC(=O)CC(C(C)C)C(C)C)OC1=O)C(C)C` (stereo not given), for which the TGI was 29.6 µM with MDA-N; 30.3 µM in the assay on HCT-15 colon; 23.1 µM in the assay on MALME-3M melanoma; 26.5 µM with NCI-H522 lung; 35.1 µM in the assay with HCT-116 colon; 18.7 µM in the assay with HOP-92 NSCLC. Besides, the TGI in the assay with ACHN renal was 18.2 µM; with SF-268 CNS, 23.1 µM; in the assay with MDA-MB-435, 16.9 µM; in the assay on OVCAR-8 ovarian, 29.7 µM; in the assay with SN12C renal, 31.9 µM.
Regarding `CC(=O)Nc1ncc(Sc2ccccc2C(=O)O)s1`, the TGI in the assay on MDA-N, in the assay with HCT-15 colon, in the assay on HCT-116 colon, in the assay on HOP-92 NSCLC, in the assay with ACHN renal and in the assay on SF-268 CNS was above 100 µM each time. The TGI with MDA-MB-435, with OVCAR-8 ovarian and in the assay with SN12C renal was above 100 µM in each case.
Turning to `O=C(/C=C/c1ccc(O)c(O)c1)OCCc1cccc2ccccc12`, the TGI in the assay with MDA-N was found to be 5.26 µM; in the assay with HCT-15 colon, 9.64 µM; in the assay on MALME-3M melanoma it was 19.5 µM; in the assay with NCI-H522 lung, 4.17 µM; with HCT-116 colon it was 14.6 µM; with HOP-92 NSCLC, 23.8 µM. Also, the TGI in the assay with ACHN renal was found to be 13.4 µM; with SF-268 CNS, 27 µM; in the assay on MDA-MB-435 it was 4.65 µM; in the assay on OVCAR-8 ovarian, 19.9 µM; with SN12C renal it was 7.96 µM.
